From patent US8008488B2 (Abbott GmbH & Co. KG, priority 2003, dated 2011)
pKi: −log10 of the molar value.

Columns and labels:
[1] = molecular target: T1, human dopamine D2L receptors (long isoform) (Homo sapiens, UniProt P14416); experiment: Dopamine D2L receptor binding, displacement of [125I]-iodospiperone; settings: *Ki(D2L)/Ki(D3), HEK-293 membranes, 0.01 nM [125I]-iodospiperone
T1 construct: expressed in transfected cells
Description: (§1) The substance to be tested was dissolved either in methanol/Chremophor® (BASF-AG) or in dimethyl sulfoxide and then diluted with water to the desired concentration.
(§2) Triplicate mixtures were carried out.
The incubation buffer contained 50 mM Tris, 120 mM NaCl, 5 mM KCl, 2 mM CaCl2, 2 mM MgCl2 and 0.1% bovine serum albumin. The buffer was adjusted to pH 7.4 with HCl.
(§3) Measurement and Evaluation:
(§4) After incubation at 25° C. for 60 minutes, the mixtures were filtered under vacuum through Whatman GF/B glass fiber filters using a cell harvester. The filters were transferred by a filter transfer system into scintillation vials. After addition of 4 ml of Ultima Gold® (Packard), the samples were shaken for one hour and then the radioactivity was calculated in a beta counter (Packard, Tricarb 2000 or 2200CA). The cp values were converted into dpm by means of a standard quench series with the aid of the instrument's own program.
(§5) Evaluation of the inhibition plots took place by iterative nonlinear regression analysis using the Statistical Analysis System (SAS) similar to the “LIGAND” program described by Munson and Rodbard.

[2] = molecular target: T2, human dopamine D3 receptors (Homo sapiens, UniProt P35462); experiment: Dopamine D3 receptor binding, displacement of [125I]-iodosulpride; settings: membranes from HEK-293 cells with stably expressed human D3 receptors, 0.1 nM [125I]-iodosulpride
T2 construct: expressed in transfected cells
T2 sequence (P35462 whole entry): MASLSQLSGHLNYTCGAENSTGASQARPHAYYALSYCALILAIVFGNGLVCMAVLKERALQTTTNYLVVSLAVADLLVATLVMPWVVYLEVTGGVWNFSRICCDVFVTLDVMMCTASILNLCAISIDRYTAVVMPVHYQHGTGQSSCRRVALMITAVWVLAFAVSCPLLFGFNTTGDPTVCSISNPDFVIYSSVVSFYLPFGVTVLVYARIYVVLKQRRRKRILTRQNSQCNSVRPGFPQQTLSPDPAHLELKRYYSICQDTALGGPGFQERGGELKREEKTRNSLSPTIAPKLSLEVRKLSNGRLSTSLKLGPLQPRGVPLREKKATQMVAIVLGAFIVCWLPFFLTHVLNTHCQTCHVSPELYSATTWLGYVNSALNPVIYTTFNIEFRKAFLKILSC
Description: as §1, §2
The incubation buffer contained 50 mM Tris, 120 mM NaCl, 5 mM KCl, 2 mM CaCl2, 2 mM MgCl2 and 0.1% bovine serum albumin, 10 μM quinolone, 0.1% ascorbic acid (prepared fresh each day). The buffer was adjusted to pH 7.4 with HCl.
as §3, §4, §5

T1 sequence (P14416 whole entry, canonical isoform): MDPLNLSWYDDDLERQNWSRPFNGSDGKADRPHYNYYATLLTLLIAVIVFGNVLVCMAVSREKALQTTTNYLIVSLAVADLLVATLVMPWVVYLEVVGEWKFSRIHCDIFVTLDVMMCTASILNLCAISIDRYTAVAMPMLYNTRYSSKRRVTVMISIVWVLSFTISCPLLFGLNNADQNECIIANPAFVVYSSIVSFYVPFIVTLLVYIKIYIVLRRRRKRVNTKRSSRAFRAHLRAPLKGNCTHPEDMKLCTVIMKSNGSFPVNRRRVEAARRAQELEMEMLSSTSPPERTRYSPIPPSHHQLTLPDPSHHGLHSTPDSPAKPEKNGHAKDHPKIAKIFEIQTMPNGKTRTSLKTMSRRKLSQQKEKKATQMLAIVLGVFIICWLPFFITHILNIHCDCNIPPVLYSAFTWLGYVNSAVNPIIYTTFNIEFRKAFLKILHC

| Molecule | Selectivity D3 vs. D2L* [1] | pKi [2] |
| --- | --- | --- |
| 1-{4-[4-(2,3-Dichlorophenyl)piperazin-1-yl]butyl}-5-methyl-1H-pyrimidine-2,4-dione [Example 82] | 54 | 9.51 |
| 1-{4-[4-(2-tert-Butyl-6-propylpyrimidin-4-yl)piperazin-1-yl]butyl}-4-methyl-1H-pyrimidin-2-one [Example 69] | 54 | 8.74 |
| CCCc1cc(N2CCN(C(C)CCCn3cc(C)c(=O)[nH]c3=O)CC2)nc(C(C)(C)C)n1 (single isomer, unassigned; (+)) [Example 63, (+)-1-{4-[4-(2-tert-Butyl-6-propylpyrimidin-4-yl)piperazin-1-yl]pentyl}-5-methyl-1H-pyrimidine-2,4-dione] | 65 | 8.53 |
| Cc1cn(CC(C)CCN2CCN(c3cc(C(F)(F)F)nc(C(C)(C)C)n3)CC2)c(=O)[nH]c1=O (single isomer, unassigned; (-)) [Example 64, (−)-1-{4-[4-(2-tert-Butyl-6-trifluoromethylpyrimidin-4-yl)piperazin-1-yl]-2-methylbutyl}-5-methyl-1H-pyrimidine-2,4-dione] | 57 | 8.59 |
| CCCc1cc(N2CCN(C(C)CCCn3cc(C)c(=O)[nH]c3=O)CC2)nc(C(C)(C)C)n1 (single isomer, unassigned; (-)) [Example 76, (−)-1-{4-[4-(2-tert-Butyl-6-propylpyrimidin-4-yl)piperazin-1-yl]pentyl}-5-methyl-1H-pyrimidine-2,4-dione] | 103 | 8.52 |
| Cc1cn(CCCCN2CCN(c3cc(C(F)(F)F)nc(C(C)(C)C)n3)CC2)c(=O)nc1S [Example 2, 1-(4-{4-[2-tert-Butyl-6-(trifluoromethyl)pyrimidin-4-yl]piperazin-1-yl}butyl)-4-mercapto-5-methylpyrimidin-2(1H)-one] | 88 | 8.49 |
| Cc1cn(CCCCN2CCN(c3cc(C(F)(F)F)nc(C(C)(C)C)n3)CC2)c(=O)nc1O.Cl [Example 5, 1-[2-tert-Butyl-6-(trifluoromethyl)pyrimidin-4-yl]-4-[4-(4-hydroxy-5-methyl-2-oxopyrimidin-1 (2H)-yl)butyl]piperazin-4-ium chloride] | 246 | 8.89 |
| Cc1cnc(=O)n(CCCCN2CCN(c3cc(C(F)(F)F)nc(C(C)(C)C)n3)CC2)c1 [Example 6, 1-(4-{4-[2-tert-Butyl-6-(trifluoromethyl)pyrimidin-4-yl]piperazin-1-yl}butyl)-5-methylpyrimidin-2(1H)-one] | 35 | 7.51 |
| Cc1ccn(CCCCN2CCN(c3cc(C(F)(F)F)nc(C(C)(C)C)n3)CC2)c(=O)n1 [Example 8, 1-(4-{4-[2-tert-Butyl-6-(trifluoromethyl)pyrimidin-4-yl]piperazin-1-yl}butyl)-4-methylpyrimidin-2(1H)-one] | 71 | 8.36 |
| Cc1cn(CCCCN2CCN(c3cc(C(C)(C)C)nc(C(C)(C)C)n3)CC2)c(=O)nc1O [Example 9, 1-{4-[4-(2,6-ditert-Butylpyrimidin-4-yl)piperazin-1-yl]butyl}-4-hydroxy-5-methylpyrimidin-2(1H)-one] | 53 | 9.13 |
| CCCc1cc(N2CCN(CCCCn3cc(C)c(O)nc3=O)CC2)nc(C(C)(C)C)n1 [Example 10, 1-{4-[4-(2-tert-Butyl-6-propylpyrimidin-4-yl)piperazin-1-yl]butyl}-4-hydroxy-5-methylpyrimidin-2(1H)-one] | 97 | 8.76 |
| Cc1cn(CCCCN2CCN(c3cc(C(F)(F)F)nc(C(C)(C)C)n3)CC2)c(=O)nc1NCc1ccccc1 [Example 11, 4-(Benzylamino)-1-(4-{4-[2-tert-butyl-6-(trifluoromethyl)pyrimidin-4-yl]piperazin-1-yl}butyl)-5-methylpyrimidin-2(1H)-one] | 65 | 8.50 |
| Cc1cn(CCCCN2CCN(c3cc(C(F)(F)F)nc(C(C)(C)C)n3)CC2)c(=O)nc1N(C)C.Cl [Example 12, 1-[2-tert-Butyl-6-(trifluoromethyl)pyrimidin-4-yl]-4-{4-[4-(dimethylamino)-5-methyl-2-oxopyrimidin-1 (2H)-yl]butyl}piperazin-4-ium chloride] | 63 | 8.46 |
| CC(C)(C)c1nc(N2CCN(CCCCn3ccc(O)nc3=O)CC2)cc(C(F)(F)F)n1 [Example 13] | 104 | 8.73 |
| CC(C)(C)c1ccn(CCCCN2CCN(c3cc(C(F)(F)F)nc(C(C)(C)C)n3)CC2)c(=O)n1 [Example 14, 4-tert-Butyl-1-(4-{4-[2-tert-butyl-6-(trifluoromethyl)pyrimidin-4-yl]piperazin-1-yl}butyl)pyrimidin-2(1H)-one] | 82 | 8.58 |
| CC(C)(C)c1nc(N2CCN(CCCCn3ccc(C(F)(F)F)nc3=O)CC2)cc(C(F)(F)F)n1.Cl [Example 15, 1-[2-tert-Butyl-6-(trifluoromethyl)pyrimidin-4-yl]-4-{4-[2-oxo-4-(trifluoromethyl)pyrimidin-1 (2H)-yl]butyl}piperazin-4-ium chloride] | 64 | 7.84 |
| CC(C)(C)c1nc(N2CCN(CCCCn3cc(F)c(=O)[nH]c3=O)CC2)cc(C(F)(F)F)n1.Cl [Example 16, 1-[2-tert-Butyl-6-(trifluoromethyl)pyrimidin-4-yl]-4-[4-(5-fluoro-2,4-dioxo-3,4-dihydro-pyrimidin-1 (2H)-yl)butyl]piperazin-4-ium chloride] | 201 | 8.52 |
| Cc1cn(CCCCN2CCN(c3cc(C4CC4)nc(C(C)(C)C)n3)CC2)c(=O)nc1O [Example 17, 1-{4-[4-(2-tert-Butyl-6-cyclopropylpyrimidin-4-yl)piperazin-1-yl]butyl}-4-hydroxy-5-methylpyrimidin-2(1H)-one] | 134 | 9.15 |
| CC(C)(C)c1nc(N2CCN(CCCCn3cc(C#N)c(=O)[nH]c3=O)CC2)cc(C(F)(F)F)n1 [Example 18, 1-(4-{4-[2-tert-Butyl-6-(trifluoromethyl)pyrimidin-4-yl]piperazin-1-yl}butyl)-2,4-dioxo-1,2,3,4-tetrahydropyrimidine-5-carbonitrile] | 99 | 8.32 |
| CC(C)(C)c1ccn(CCCCN2CCN(c3cc(C4CC4)nc(C(C)(C)C)n3)CC2)c(=O)n1 [Example 19, 4-tert-Butyl-1-{4-[4-(2-tert-butyl-6-cyclopropylpyrimidin-4-yl)piperazin-1-yl]butyl}pyrimidin-2(1H)-one] | 96 | 8.84 |
| CCCc1cc(N2CCN(CCCCn3ccc(O)nc3=O)CC2)nc(C(C)(C)C)n1 [Example 20, 1-{4-[4-(2-tert-Butyl-6-propylpyrimidin-4-yl)piperazin-1-yl]butyl}-4-hydroxypyrimidin-2(1H)-one] | 108 | 8.73 |
| CCCc1cc(N2CCN(CCCCn3ccc(C(C)(C)C)nc3=O)CC2)nc(C(C)(C)C)n1.Cl [Example 21, 1-[4-(4-tert-Butyl-2-oxopyrimidin-1 (2H)-yl)butyl]-4-(2-tert-butyl-6-propylpyrimidin-4-yl)piperazin-1-ium chloride] | 96 | 8.71 |
| Cc1cn(CCCCN2CCN(c3cc(C4CCC4)nc(C(C)(C)C)n3)CC2)c(=O)nc1O [Example 22, 1-{4-[4-(2-tert-Butyl-6-cyclobutylpyrimidin-4-yl)piperazin-1-yl]butyl}-4-hydroxy-5-methylpyrimidin-2(1H)-one] | 77 | 8.94 |
| CC(C)(C)c1nc(C2CCC2)cc(N2CCN(CCCCn3ccc(=O)[nH]c3=O)CC2)n1 [Example 23, 1-{4-[4-(2-tert-Butyl-6-cyclobutylpyrimidin-4-yl)piperazin-1-yl]butyl}pyrimidine-2,4(1H,3H)-dione] | 63 | 8.82 |
| Cc1cn(CCCCN2CCN(c3cc(C(F)(F)F)nc(C(C)(C)C)n3)CC2)c(=O)n(C)c1=O [Example 25, 1-(4-{4-[2-tert-Butyl-6-(trifluoromethyl)pyrimidin-4-yl]piperazin-1-yl}butyl)-3,5-dimethylpyrimidine-2,4(1H,3H)-dione] | 34 |  |
| Cc1cn(CCCCN2CCN(c3cc(C(F)(F)F)nc(C(C)(C)C)n3)CC2)c(=O)nc1-c1ccccc1 [Example 26, 1-(4-{4-[2-tert-Butyl-6-(trifluoromethyl)pyrimidin-4-yl]piperazin-1-yl}butyl)-5-methyl-4-phenylpyrimidin-2(1H)-one] | 55 | 8.09 |
| Cn1c(=O)ccn(CCCCN2CCN(c3cc(C(F)(F)F)nc(C(C)(C)C)n3)CC2)c1=O [Example 27, 1-(4-{4-[2-tert-Butyl-6-(trifluoromethyl)pyrimidin-4-yl]piperazin-1-yl}butyl)-3-methylpyrimidine-2,4(1H,3H)-dione] | 52 |  |
